Read-outs that look alike come from different tables or passages of the source.
Legend:
[1] = tested on: carrageenan-induced paw edema; test: Carrageenan-induced acute inflammatory (paw edema) model; type: in vivo, Sprague Dawley (SD) rats; conditions: as compared to control (no treatment)
Experimental: Carrageenan-Induced Acute Inflammatory Model
The anti-inflammatory effect of the gel formulations was assessed using carrageenan-induced paw edema model (Whiteley and Dalrymple 1998, Lee and Crosby 1999, Sammons, Raval et al. 2000, Cong, Khaziakhmetova et al. 2015) using Sprague Dawley (SD) rats. This model was deduced suitable for the evaluation of anti-inflammatory and anti-hyperalgesic drugs (Whiteley and Dalrymple 1998, Lee and Crosby 1999, Sammons, Raval et al. 2000, Cong, Khaziakhmetova et al. 2015). Edema was induced in male Sprague Dawley (SD) rats by sub-plantar injection of 50 μL of 0.1% λ-carrageenan (22049 SIGMA λ-Carrageenan plant-mucopolysaccharide, Sigma-Aldrich) gel in nuclease free water into the left hind paw of the animals. The inventors evaluated the intensity, development, and duration of the induced inflammation by measurements of rat paw volume using a digital plethysmometer (LE 7500, Panlab, Harvard Apparatus). Measurements were made prior to edema induction (base-line volume) and at 1, 2, 4, 6, 8, 12, and 24 hrs after sub-plantar carrageenan injection. The intensity of inflammation was assessed by calculating the percentage of increase in paw volume against the base-line measurements. Animals were divided into 4 groups of 4 rats each; group 1: control (no treatment); group 2: CBD gel (Gel A); group 3: CBG gel (Gel I); and group 4: THCV gel (Gel J). […] Therefore, placebo gels were not considered in the study.

[2] = Pre-formulation solubility of CBD, THCV and CBG in solvents; type: physicochemical
Experimental: Pre-Formulation Studies: Solubility of CBD, THCV and CBG
The solubility of APIs including CBD, CBG and THCV was determined in various solvents including dimethyl sulfoxide (DMSO), N-Methyl-2-pyrrolidone (NMP), and PEG 400. Briefly, 100 mg of each API was dissolved in 0.5 ml of DMSO, NMP, PEG400 and vortexed until it dissolved completely. All the solutions were then visually observed for any undissolved particles. Further, all the solubility samples were centrifuged, and the supernatant were collected. Samples were then analyzed using HPLC for the amount of drug solubilized in each solvent.

[3] = In-vitro skin permeation study (IVPT), Franz diffusion cells; type: in vitro ADME, Human; conditions: for cumulative drug permeation: end of 72 hrs
Experimental: In-Vitro Skin Permeation Study
The in-vitro permeation and deposition studies were performed under occlusive conditions using jacketed Franz diffusion cells with a 0.636 cm2 permeation area and 5 mL receptor chamber volume. Human skin used was obtained from The New York Fire Fighter's skin bank and originated from the right and left posterior leg regions. Dermatomed, cryopressed split thickness skin with epidermis and dermis were delivered in plastic bags and stored at −80° C. until further use.
Skin was thawed in water for 45 minutes and was cut into small pieces and mounted on Franz cells. Receptor medium containing PBS with 25% (v/v) ethanol and 5% (v/v) Tween 80 was used for the IVPT study. 0.01% (w/v) sodium azide was added in the receiving media and sonicated for 20 mins to degasify it. To ensure the absence of bubbles in the receptor chamber, each cell was turned upside down to allow release of air though the sampling port. The cells were then left to equilibrate for about 10 mins before application of hydrogel samples. To begin the permeation experiment, 0.2 mL samples of each formulation was pipetted onto the donor compartment. The donor compartment of each cell was sealed with parafilm and perforated with a needle and the fastened to the receiving compartment using a clamp. Following the completion of the experimental setup, the Franz diffusion cells were blanketed to prevent photo-degradation of samples and the system kept at 32.3° C. with the use of its circulating water bath to maintain the skin surface temperature of 32° C. throughout the duration of the experiment. A 72 hr experimentation duration was employed with sampling times set at 24 hr increments. 1 mL samples were withdrawn from the receptor chamber via the sampling port and analyzed by HPLC, and the entire remaining receiving media in the receptor chamber was discarded and replaced with a fresh batch. The cumulative amount of drug permeated through the skin per unit area (Qp) was calculated from drug concentration in the receptor fluid and plotted as a function of time. The steady-state flux (J) was determined as the slope of the linear portion of the plot.

[4] = solution in propylene glycol, water and ethanol, Stinchcomb et al 2004, cited from earlier work
[5] = in DMSO, NMP, PEG 400 and lactic acid

SMILES | paw edema [1] | solubility [2] | cumulative drug permeated in the receiving media ([3]; 24 hrs, human skin, gel 10% w/w) | cumulative drug permeation ([3]; human skin, gel 10% w/w) | solubility [2, 5] | drug permeation ([3]; 24 hours post administration) | cumulative amount of CBD permeation ([4]; end of 48 hrs) [µg] | maximum flux ([4]; 48 hrs IVPT) [μg/cm^2/hr]
CCCCCc1cc(O)c(C/C=C(\C)CCC=C(C)C)c(O)c1 [CBG, Cannabigerol] | significantly (p<0.0001) reduced | high solubility | at least 136 μg/cm^2 | at least 321 μg/cm^2 |  |  |  | 
CCCc1cc(O)c2c(c1)OC(C)(C)[C@@H]1CCC(C)=C[C@@H]21 [THCV, Tetrahydrocannabivarin] | significantly (p<0.0001) reduced |  |  | at least 2124 μg/cm^2 | high solubility | at least 843 g/cm^2 |  | 
C=C(C)[C@@H]1CCC(C)=C[C@H]1c1c(O)cc(CCCCC)cc1O [CBD, Cannabidiol, reference compound] | significantly (p<0.0001) reduced |  |  |  | high solubility |  | ~78.61 | ~1.47
